# Measured values as given in patent US6780871B2, “Methods and compositions for treating addiction disorders” (Albany Medical College, priority 2001, dated 2004).
# Key:
# [1] = tested on: morphine self-administration; assay: intravenous morphine self-administration; format: in vivo, rat; conditions: 18-methoxycoronaridine 1 mg/kg i.p., dextromethorphan 5 mg/kg s.c.
# Experimental: Dextromethorphan hydrobromide (5 mg/kg; Sigma/RBI, St. Louis, Mo.) was dissolved in saline and injected subcutaneously 20 minutes before testing. Mecamylamine hydrochloride (1 mg/kg; Sigma/RBI, St. Louis, Mo.) was dissolved in physiological saline and injected intraperitoneally 30 minutes before testing. All rats received two injections. For rats that received a single drug, half of them also received the appropriate saline/vehicle injection corresponding to each of the other two drugs.
# Naive female Long-Evans derived rats (250 g; Charles River, N.Y.) were maintained on a normal 12 h light cycle (lights on at 7:00 a.m., lights off at 7:00 p.m.). For all experiments the “Principles of Laboratory Animal Care” (NIH publication No. 85-23, revised 1985, which is hereby incorporated by reference) were followed.
# The intravenous self-administration procedure described in Glick et al., “18-MC Reduces Methamphetamine and Nicotine Self-administration in Rats,” NeuroReport 11:2013-2015 (2000) (“Glick I”), which is hereby incorporated by reference, was employed. Briefly, responses on either of two levers (mounted 15 cm apart on the front wall of each operant test cage) were recorded on an IBM compatible computer with a Med Associates, Inc. interface. The intravenous self-administration system consisted of polyethylene-silicone cannulas constructed according to the design of Weeks, “Long-term Intravenous Infusion,” pp. 155-168 in Myers (ed.), Methods in Psychobiology, Vol. 2, New York: Academic Press (1972) (“Weeks”), which is hereby incorporated by reference; Instech harnesses and swivels; and Harvard Apparatus infusion pumps (#55-2222). Shaping of the bar-press response was initially accomplished by training rats to bar-press for water. Cannulas were then implanted in the external jugular vein according to procedures described in Weeks, which is hereby incorporated by reference. Self-administration testing began with a 16-h nocturnal session followed by daily 1-h sessions, 5 days (Monday-Friday) a week. A lever-press response produced a 10 μl infusion of drug solution (0.01 mg of morphine sulfate) in about 0.2 s or a 50 μl infusion of drug solution (0.025 mg of methamphetamine sulfate) in about 1 s. Since all rats generally weighed 250±20 g, each response delivered approximately 0.04 mg/kg of morphine or 0.1 mg/kg of methamphetamine. Experiments to assess the effects of experimental treatments were begun when baseline self-administration rates stabilized (≦10% variation from one day to the next across 5 days), usually after 2 weeks of testing.
# Each data point represents the mean (±S.E.M.) percent of baseline of 6-8 rats. Significant differences between baseline and treatment are indicated by an asterisk (paired t-test, P<0.01-0.001).
# Each data point represents the mean (±S.E.M.) percent of baseline of 5-8 rats. Significant differences between baseline and treatment are indicated by an asterisk (paired t-test), P<0.05-0.01).
# α3β4 nACh receptors = molecular target: T1, α3β4 nACh receptors (Rattus norvegicus, UniProt P04757+P12392); assay: whole-cell patch-clamp of transfected HEK293 cells, ganglionic α3β4 nACh receptors, 1 mM ACh; format: cell-based
# T1 construct: expressed in transfected cells; host or cells: HEK293 (ATCC CRL1573), transient transfection
# T1 sequence (P04757 26-499): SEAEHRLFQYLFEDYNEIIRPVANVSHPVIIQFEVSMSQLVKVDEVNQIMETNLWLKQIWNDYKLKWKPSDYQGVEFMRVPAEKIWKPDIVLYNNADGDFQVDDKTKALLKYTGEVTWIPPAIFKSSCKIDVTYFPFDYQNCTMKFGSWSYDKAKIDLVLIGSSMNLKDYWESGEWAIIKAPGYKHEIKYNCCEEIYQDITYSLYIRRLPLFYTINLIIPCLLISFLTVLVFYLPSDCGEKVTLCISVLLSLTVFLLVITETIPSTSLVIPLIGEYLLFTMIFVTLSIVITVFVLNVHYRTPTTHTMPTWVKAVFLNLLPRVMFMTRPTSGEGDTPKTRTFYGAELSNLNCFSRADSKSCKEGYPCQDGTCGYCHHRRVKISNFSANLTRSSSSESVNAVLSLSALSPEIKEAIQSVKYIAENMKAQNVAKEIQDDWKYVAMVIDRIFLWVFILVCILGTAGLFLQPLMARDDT
# T1 sequence (P12392 21-495): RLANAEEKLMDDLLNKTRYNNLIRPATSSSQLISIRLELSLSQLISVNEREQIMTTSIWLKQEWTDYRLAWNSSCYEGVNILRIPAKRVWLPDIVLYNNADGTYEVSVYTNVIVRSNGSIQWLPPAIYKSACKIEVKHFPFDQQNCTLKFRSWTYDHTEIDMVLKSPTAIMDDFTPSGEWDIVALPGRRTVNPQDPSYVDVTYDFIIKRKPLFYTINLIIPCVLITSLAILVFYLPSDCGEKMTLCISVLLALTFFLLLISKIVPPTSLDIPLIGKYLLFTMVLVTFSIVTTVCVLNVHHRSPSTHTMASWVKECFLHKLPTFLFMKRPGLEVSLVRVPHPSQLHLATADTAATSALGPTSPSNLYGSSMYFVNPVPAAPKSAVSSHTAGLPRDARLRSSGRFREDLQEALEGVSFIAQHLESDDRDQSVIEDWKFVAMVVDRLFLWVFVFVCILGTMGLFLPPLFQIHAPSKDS
# Experimental: Human embryonic kidney 293 (HEK293) fibroblasts (ATCC CRL1573) were cultured in minimal essential medium supplemented with 10% fetal bovine serum and 2 mM glutamine (Life Technologies, Rockville, Md.). Cells were plated on poly-D-lysine-coated 35 mm nunc dishes, transfected by the LipofectaminePLUS method (Life Technologies), and examined functionally between 18-48 h post transfection. The following receptor subunit cDNAs were used: nAChR-α3 (nicotinic acetylcholine receptor-α3; accession no. L31621), nAChR-α4 (accession no. L31620), nAChR-β2 (accession no. L31622), nAChR-β4 (accession no. U42976), 5-HT3R-A (5-HT3A receptor; accession no. M74425), NR1 (N-methyl-D-aspartate receptor 1; accession no. X63255), NR2A (accession no. X91561), and NR2B (accession no. M91562). The nAchR and NR clones were rat; the 5-HT3R-A clone was mouse. Co-transfection of enhanced green fluorescent protein (“EGFP”) (10% of total cDNA) provided a marker to identify transfected cells. Transfected cells were selected for EGFP expression and examined by voltage-clamp recording in the whole-cell configuration using an Axopatch 200B patch-clamp amplifier (Axon Instruments, Foster City, Calif.). Thin-walled borosilicate glass microelectrodes (TW150F, World Precision Instruments, Sarasota, Fla.) had resistances of 3-5 MΩ when filled with an internal solution containing (in mM): 135 CsCl, 10 CsF, 10 HEPES (N-[2-hydroxyethyl]piperazine-N′-[2-ethanesulfonic acid]), 5 EGTA (ethylene glycol-bis[β-aminoethyl ether]-N,N,N′,N′-tetraacetic acid), 1 MgCl2, 0.5 CaCl2, pH 7.2. Whole-cell capacitance and series resistance were recorded and adequately compensated using the available circuitry of the amplifier. Current responses were filtered at 1 kHz with an 8-pole Bessel filter (Cygnus Technologies, Delaware Water Gap, Pa.), digitized at 3 kHz, and stored on a Macintosh PowerPC-G3 computer using an ITC-16 interface (Instrutech, Great Neck, N.Y.) under control of the data acquisition and analysis program Synapse (Synergy Research, Gaithersburg, Md.). […] Rapid switching between inputs was achieved using a set of upstream solenoid valves (Lee Co., Westbrook, Conn.) under computer control; the solution exchange rate was ˜5 ms as measured from liquid junction currents.
# Transfected HEK293 cells expressing various receptor subunit cDNAs were examined by whole-cell patch-clamp recording with fast perfusion of agonist and drug solutions. […] In FIG. 1A, open bars depict the timing of ACh application; filled bars depict the timing of co-application of 20 μM IBO or 20 μM 18MC; and inhibition was measured relative to control at the end of the drug application (indicated by arrows). […]
compound,measurement,setting,value
COCC[C@H]1CC2CN3CCc4c([nH]c5ccccc45)[C@](C(=O)OC)(C2)[C@H]13 [18-methoxycoronaridine],effect on morphine self-administration (percent of baseline),"[1]; Example 5, FIG. 5: mecamylamine 1 mg/kg i.p., 6-8 rats","none of the drugs administered alone, significantly decreased"
same,effect on morphine self-administration (percent of baseline),"[1]; Example 6, FIG. 8: mecamylamine 1 mg/kg i.p., bupropion 5 mg/kg i.p., 5-8 rats","none of the drugs administered alone, significantly decreased"
same,response to drug applied alone (agonist activity),"α3β4 nACh receptors; 20 μM drug alone, -70 mV",did not produce any response
same,inhibition of ACh-evoked responses on co-application,"α3β4 nACh receptors; 20 μM drug with 1 mM ACh, N=15, FIG. 1A",nearly abolished
